According to ChEMBL document CHEMBL5390280, “Design, Synthesis, and Biological Evaluation of an Orally Bioavailable, Potent, and Selective ROCK2 Inhibitor for Psoriasis Treatment” (J Med Chem, 2023):
The source made the active and inactive calls. No cut-off for these calls is given here.

How the values were obtained:
[1] = target: Rho-associated protein kinase 2 (Homo sapiens, UniProt O75116); experiment: Inhibition of ROCK2 (unknown origin) by HTRF assay
Mus musculus [2] = experiment: In vivo inhibition of ROCK2 in Balb/c mouse model of IMQ-induced skin inflammation assessed as decrease in pSTAT3+ cells in dorsal skin at 20 to 80 mg/kg, po administered daily for 7 days by high power field microscopy; assay type: functional, organism-based; conditions: dose 20-80 mg/kg, time 7.0 day
[3] = target: Rho-associated protein kinase 1 (Homo sapiens, UniProt Q13464); experiment: Inhibition of ROCK1 (unknown origin) by HTRF assay
[4] = Selectivity ratio of IC50 for ROCK1 (unknown origin) to IC50 for ROCK2 (unknown origin)
[5] = Chemical stability of compound in PBS at pH 7.4 assessed as compound remaining measured after 10 days; assay type: physicochemical; conditions: time 10 day, read-out: Stability
[6] = AUC (0 to t) in Balb/c mouse at 10 mg/kg, iv measured for 0.08 to 24 hrs by LC-MS/MS analysis; assay type: ADME, organism-based; design: time upper 24 hrs, time lower 0.08 hrs, dose 10 mg/kg, route iv; conditions: in vivo
[7] = Volume of distribution at steady state in Balb/c mouse at 10 mg/kg, iv measured for 0.08 to 24 hrs by LC-MS/MS analysis; assay type: ADME, organism-based; conditions: in vivo, time 0.08-24 hrs, read-out: Vdss
[8] = Half life in Balb/c mouse at 10 mg/kg, iv measured for 0.08 to 24 hrs by LC-MS/MS analysis; assay type: ADME, organism-based; conditions: in vivo, time 0.08-24 hrs
[9] = AUC (0 to t) in Balb/c mouse at 40 mg/kg, po measured for 0.08 to 24 hrs by LC-MS/MS analysis; assay type: ADME, organism-based; design: time 0.08-24 hrs, dose 40 mg/kg, route po; conditions: in vivo
[10] = AUC (0 to infinity) in Balb/c mouse at 40 mg/kg, po measured for 0.08 to 24 hrs by LC-MS/MS analysis; assay type: ADME, organism-based; design: time 0.08-24 hrs, dose 40 mg/kg, route po; conditions: in vivo
[11] = Half life in Balb/c mouse at 40 mg/kg, po measured for 0.08 to 24 hrs by LC-MS/MS analysis; assay type: ADME, organism-based; conditions: in vivo, time 0.08-24 hrs
[12] = Tmax in Balb/c mouse at 40 mg/kg, po measured for 0.08 to 24 hrs by LC-MS/MS analysis; assay type: ADME, organism-based; conditions: in vivo, time 0.08-24 hrs
[13] = Cmax in Balb/c mouse at 40 mg/kg, po measured for 0.08 to 24 hrs by LC-MS/MS analysis; assay type: ADME, organism-based; design: time lower 0.08 hrs, dose 40 mg/kg, time upper 24 hrs, route po; conditions: in vivo
[14] = Oral bioavailability in Balb/c mouse at 40 mg/kg measured for 0.08 to 24 hrs by LC-MS/MS analysis; assay type: ADME, organism-based; conditions: in vivo, time 0.08-24 hrs
Mus musculus [15] = experiment: Anti-inflammatory activity in Balb/c mouse model of IMQ-induced skin inflammation assessed as reduction in skin roughness at 20 to 80 mg/kg, po administered daily for 7 days; assay type: functional, organism-based; conditions: dose 20-80 mg/kg, time 7.0 day
Mus musculus [16] = experiment: Anti-inflammatory activity in Balb/c mouse model of IMQ-induced skin inflammation assessed as reduction in skin swelling at 20 to 80 mg/kg, po administered daily for 7 days; assay type: functional, organism-based; conditions: dose 20-80 mg/kg, time 7.0 day
[17] = Toxicity in Balb/c mouse model of IMQ-induced skin inflammation assessed as body weight loss at 80 mg/kg, po administered daily for 7 days; assay type: organism-based; conditions: in vivo, 168 h, time 7 day
[18] = Toxicity in Balb/c mouse model of IMQ-induced skin inflammation assessed as reduction in spleen index administered orally daily for 7 days; assay type: tissue-based; conditions: in vivo, po, 168 h, dose 40-80 mg/kg, time 7 day
Mus musculus [19] = experiment: Anti-inflammatory activity in Balb/c mouse model of IMQ-induced skin inflammation assessed as decrease in Ki67+ cells in dermis of dorsal skin at 80 mg/kg, po administered daily for 7 days by IHC analysis; assay type: functional, organism-based; conditions: time 7.0 day
Mus musculus [20] = experiment: Anti-inflammatory activity in Balb/c mouse model of IMQ-induced skin inflammation assessed as decrease in serum IL-17A level at 40 to 80 mg/kg, po administered daily for 7 days by IHC analysis; assay type: functional, organism-based; conditions: dose 40-80 mg/kg, time 7.0 day
Mus musculus [21] = experiment: Anti-inflammatory activity in Balb/c mouse model of IMQ-induced skin inflammation assessed as decrease in serum IL-17F level at 80 mg/kg, po administered daily for 7 days by IHC analysis; assay type: functional, organism-based; conditions: time 7.0 day
Mus musculus [22] = experiment: Anti-inflammatory activity in Balb/c mouse model of IMQ-induced skin inflammation assessed as decrease in IL-17A mRNA level in dorsal skin at 20 to 40 mg/kg, po administered daily for 7 days by RT-qPCR analysis; assay type: functional, organism-based; conditions: dose 20-40 mg/kg, time 7.0 day
Mus musculus [23] = experiment: Anti-inflammatory activity in Balb/c mouse model of IMQ-induced skin inflammation assessed as decrease in IL-17F mRNA level in dorsal skin at 20 to 40 mg/kg, po administered daily for 7 days by RT-qPCR analysis; assay type: functional, organism-based; conditions: dose 20-40 mg/kg, time 7.0 day
Mus musculus [24] = experiment: Anti-inflammatory activity in Balb/c mouse model of IMQ-induced skin inflammation assessed as decrease in IL-23 mRNA level in dorsal skin at 20 to 40 mg/kg, po administered daily for 7 days by RT-qPCR analysis; assay type: functional, organism-based; conditions: dose 20-40 mg/kg, time 7.0 day
Mus musculus [25] = experiment: Anti-inflammatory activity in Balb/c mouse model of IMQ-induced skin inflammation assessed as decrease in IL-17A mRNA level in dorsal skin at 80 mg/kg, po administered daily for 7 days by RT-qPCR analysis; assay type: functional, organism-based; conditions: time 7.0 day
Mus musculus [26] = experiment: Anti-inflammatory activity in Balb/c mouse model of IMQ-induced skin inflammation assessed as decrease in IL-17F mRNA level in dorsal skin at 80 mg/kg, po administered daily for 7 days by RT-qPCR analysis; assay type: functional, organism-based; conditions: time 7.0 day
Mus musculus [27] = experiment: Anti-inflammatory activity in Balb/c mouse model of IMQ-induced skin inflammation assessed as decrease in IL-22 mRNA level in dorsal skin at 80 mg/kg, po administered daily for 7 days by RT-qPCR analysis; assay type: functional, organism-based; conditions: time 7.0 day
Mus musculus [28] = experiment: Anti-inflammatory activity in Balb/c mouse model of IMQ-induced skin inflammation assessed as decrease in IL-23 mRNA level in dorsal skin at 80 mg/kg, po administered daily for 7 days by RT-qPCR analysis; assay type: functional, organism-based; conditions: time 7.0 day
Mus musculus [29] = experiment: Anti-inflammatory activity in Balb/c mouse model of IMQ-induced skin inflammation assessed as decrease in CD3+ T cells in dorsal skin at 20 to 80 mg/kg, po administered daily for 7 days by high power field microscopy; assay type: functional, organism-based; conditions: T-cell, dose 20-80 mg/kg, time 7.0 day
HaCaT [30] = experiment: Inhibition of KGF-induced hyperproliferation of human HaCaT cells by plate clone formation assay; assay type: functional, cell-based
HaCaT [31] = experiment: Anti-psoriasis effect in KGF-stimulated human HaCaT cells assessed as decrease in fibronectin level at 2 to 5 uM incubated for 24 hrs by Western blot analysis; assay type: functional, cell-based; conditions: dose 2-5 µM
HaCaT [32] = experiment: Anti-psoriasis effect in KGF-stimulated human HaCaT cells assessed as decrease in N-cadherin level at 2 to 5 uM incubated for 24 hrs by Western blot analysis; assay type: functional, cell-based; conditions: dose 2-5 µM
HaCaT [33] = experiment: Anti-psoriasis effect in KGF-stimulated human HaCaT cells assessed as decrease in elastin level at 2 to 5 uM incubated for 24 hrs by Western blot analysis; assay type: functional, cell-based; conditions: dose 2-5 µM
HaCaT [34] = experiment: Anti-psoriasis effect in KGF-stimulated human HaCaT cells assessed as decrease in pSTAT3 level at 2 to 5 uM incubated for 24 hrs by Western blot analysis; assay type: functional, cell-based; conditions: dose 2-5 µM

Chain of Rho-associated protein kinase 1 (Q13464 whole entry): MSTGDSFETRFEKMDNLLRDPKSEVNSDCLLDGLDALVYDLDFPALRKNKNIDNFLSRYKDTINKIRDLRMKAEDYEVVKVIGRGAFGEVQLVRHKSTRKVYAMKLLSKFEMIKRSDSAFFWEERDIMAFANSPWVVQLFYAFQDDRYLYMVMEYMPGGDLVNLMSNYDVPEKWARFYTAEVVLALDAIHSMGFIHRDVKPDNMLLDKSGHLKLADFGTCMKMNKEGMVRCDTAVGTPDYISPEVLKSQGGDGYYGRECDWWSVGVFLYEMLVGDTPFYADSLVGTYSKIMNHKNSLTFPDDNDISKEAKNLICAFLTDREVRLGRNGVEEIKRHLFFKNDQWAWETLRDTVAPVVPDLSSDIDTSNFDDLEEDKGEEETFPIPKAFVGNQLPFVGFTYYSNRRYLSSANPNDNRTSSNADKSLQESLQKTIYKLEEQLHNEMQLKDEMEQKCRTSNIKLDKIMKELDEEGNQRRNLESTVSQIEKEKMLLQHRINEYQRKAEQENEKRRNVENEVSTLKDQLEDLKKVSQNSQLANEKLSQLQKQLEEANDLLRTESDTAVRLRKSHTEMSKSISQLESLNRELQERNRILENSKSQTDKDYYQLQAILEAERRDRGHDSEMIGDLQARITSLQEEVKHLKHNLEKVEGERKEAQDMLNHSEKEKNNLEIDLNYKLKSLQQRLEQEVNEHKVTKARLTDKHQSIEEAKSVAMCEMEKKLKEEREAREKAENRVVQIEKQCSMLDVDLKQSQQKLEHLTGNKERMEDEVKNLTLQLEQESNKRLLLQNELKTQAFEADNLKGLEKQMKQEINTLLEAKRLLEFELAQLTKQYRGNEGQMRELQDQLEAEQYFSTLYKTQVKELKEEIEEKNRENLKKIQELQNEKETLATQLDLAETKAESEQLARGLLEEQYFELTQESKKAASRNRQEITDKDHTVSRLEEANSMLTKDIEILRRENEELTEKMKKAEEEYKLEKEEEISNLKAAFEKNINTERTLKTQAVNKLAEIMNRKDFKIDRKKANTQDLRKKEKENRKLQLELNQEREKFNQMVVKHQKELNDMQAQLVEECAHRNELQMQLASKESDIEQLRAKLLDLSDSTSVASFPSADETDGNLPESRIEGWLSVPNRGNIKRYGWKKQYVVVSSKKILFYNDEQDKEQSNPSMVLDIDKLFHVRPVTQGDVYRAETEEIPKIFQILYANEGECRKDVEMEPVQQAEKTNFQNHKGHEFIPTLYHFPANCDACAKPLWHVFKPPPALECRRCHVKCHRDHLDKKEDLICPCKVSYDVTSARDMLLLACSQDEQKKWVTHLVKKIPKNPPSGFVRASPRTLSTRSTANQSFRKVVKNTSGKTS
Chain of Rho-associated protein kinase 2 (O75116 whole entry): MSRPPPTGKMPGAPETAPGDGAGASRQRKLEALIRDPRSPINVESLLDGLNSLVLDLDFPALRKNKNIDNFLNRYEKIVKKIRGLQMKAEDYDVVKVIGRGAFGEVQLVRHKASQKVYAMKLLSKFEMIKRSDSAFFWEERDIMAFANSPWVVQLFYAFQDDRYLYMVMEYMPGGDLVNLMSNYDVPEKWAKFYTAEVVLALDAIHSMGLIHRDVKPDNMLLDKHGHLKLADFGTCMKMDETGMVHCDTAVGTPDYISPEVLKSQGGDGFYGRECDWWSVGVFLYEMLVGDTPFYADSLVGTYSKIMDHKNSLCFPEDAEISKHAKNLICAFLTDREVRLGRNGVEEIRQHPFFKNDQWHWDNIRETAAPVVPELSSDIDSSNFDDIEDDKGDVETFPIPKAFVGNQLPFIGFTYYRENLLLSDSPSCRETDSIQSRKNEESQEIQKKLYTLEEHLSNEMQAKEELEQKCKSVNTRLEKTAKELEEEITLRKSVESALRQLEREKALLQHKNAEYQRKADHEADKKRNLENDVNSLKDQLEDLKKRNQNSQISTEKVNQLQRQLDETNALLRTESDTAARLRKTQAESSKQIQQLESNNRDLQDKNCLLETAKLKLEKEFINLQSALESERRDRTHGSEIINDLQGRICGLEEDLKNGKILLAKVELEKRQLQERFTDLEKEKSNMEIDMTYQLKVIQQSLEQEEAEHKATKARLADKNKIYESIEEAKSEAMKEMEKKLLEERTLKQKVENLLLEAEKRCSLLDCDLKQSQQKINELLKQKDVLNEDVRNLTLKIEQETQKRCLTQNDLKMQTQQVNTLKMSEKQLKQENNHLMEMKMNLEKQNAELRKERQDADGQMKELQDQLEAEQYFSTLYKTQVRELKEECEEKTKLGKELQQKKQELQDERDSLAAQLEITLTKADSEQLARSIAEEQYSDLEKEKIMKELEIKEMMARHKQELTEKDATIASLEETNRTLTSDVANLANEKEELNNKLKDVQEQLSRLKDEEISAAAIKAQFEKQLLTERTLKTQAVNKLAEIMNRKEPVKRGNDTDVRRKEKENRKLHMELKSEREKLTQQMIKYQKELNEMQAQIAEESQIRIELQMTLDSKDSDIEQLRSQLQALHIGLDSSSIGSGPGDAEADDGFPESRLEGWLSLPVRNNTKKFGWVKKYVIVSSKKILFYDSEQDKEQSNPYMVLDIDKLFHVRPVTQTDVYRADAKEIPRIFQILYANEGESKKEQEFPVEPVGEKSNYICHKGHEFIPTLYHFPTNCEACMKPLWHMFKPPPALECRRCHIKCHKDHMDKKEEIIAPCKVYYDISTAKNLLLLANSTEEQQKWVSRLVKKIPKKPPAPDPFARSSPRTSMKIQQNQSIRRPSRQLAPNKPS

IC50 [1]: 3.7 nM
IC50 [3]: 71.2 nM
Ratio IC50 [4]: 19
remaining at 240 h [5]: 100%
AUC(0-t) [6]: 1040 ng·h/mL
Vd [7]: 8.63 L/kg
half-life [8]: 1.99 h
AUC(0-t) [9]: 300 ng·h/mL
AUC(0-inf) [10]: 302 ng·h/mL
half-life [11]: 1.26 h
Tmax [12]: 0.25 h
Cmax [13]: 226 ng/mL
bioavailability [14]: 7.14%
Structure (SMILES): Cc1cc(=O)n(-c2cccc(CN[C@H]3CCC[C@H](Nc4ccc5[nH]ncc5c4)C3)c2)cc1F
Activity (Mus musculus [2]): Active
Activity (Mus musculus [15]): Active
Activity (Mus musculus [16]): Active
Activity [17]: Non-Toxic
Activity [18]: Dose-Dependent Effect
Activity (Mus musculus [19]): Active
Activity (Mus musculus [20]): Active
Activity (Mus musculus [21]): inactive
Activity (Mus musculus [22]): Active
Activity (Mus musculus [23]): Active
Activity (Mus musculus [24]): Active
Activity (Mus musculus [25]): Active
Activity (Mus musculus [26]): inactive
Activity (Mus musculus [27]): Active
Activity (Mus musculus [28]): Active
Activity (Mus musculus [29]): Active
inhibition (HaCaT [30]): Active
Activity (HaCaT [31]): Active
Activity (HaCaT [32]): Active
Activity (HaCaT [33]): Active
Activity (HaCaT [34]): Active
